# Results published in patent US11787799B2 (priority 2015, dated 2023).
# How the values were obtained:
# Coxsackievirus B3-H3 = assay: microbe, parasite or virus in culture; type: cell-based; details: read-out: EC50 CVB3-H3
# Poliovirus 1 = assay: microbe, parasite or virus in culture; type: cell-based; details: read-out: EC50 PV1
# Poliovirus 3 = assay: microbe, parasite or virus in culture; type: cell-based; details: read-out: EC50 PV3
# Enterovirus 71 = assay: microbe, parasite or virus in culture; type: cell-based; details: read-out: EC50 EV71
# Coxsackievirus A9 = assay: microbe, parasite or virus in culture; type: cell-based; details: read-out: EC50 COX A9
# Echovirus 6 = assay: microbe, parasite or virus in culture; type: cell-based; details: read-out: EC50 ECHO06
# Echovirus 11 = assay: microbe, parasite or virus in culture; type: cell-based; details: read-out: EC50 ECHO11
# Coxsackievirus B1 = assay: microbe, parasite or virus in culture; type: cell-based; details: read-out: EC50 CVB1
# Coxsackievirus B2 = assay: microbe, parasite or virus in culture; type: cell-based; details: read-out: EC50 CVB2
# Coxsackievirus B4 = assay: microbe, parasite or virus in culture; type: cell-based; details: read-out: EC50 CVB4
# Coxsackievirus B5 = assay: microbe, parasite or virus in culture; type: cell-based; details: read-out: EC50 CVB5
# Echovirus 7 = assay: microbe, parasite or virus in culture; type: cell-based; details: read-out: EC50 ECHO07
# Echovirus 9 = assay: microbe, parasite or virus in culture; type: cell-based; details: read-out: EC50 ECHO09
# Echovirus 30 = assay: microbe, parasite or virus in culture; type: cell-based; details: read-out: EC50 ECHO30
# Enterovirus D68/Fermon = assay: Antiviral assay, Enterovirus D68 strain Fermon in RD cells; type: cell-based
# [1] = test system: Enterovirus D68/US/Mo/14-18949; assay: Antiviral assay, Enterovirus D68 strain US/Mo/14-18949 in RD cells; type: cell-based
# [2] = test system: Enterovirus D68/US/KY/14-18953; assay: Antiviral assay, Enterovirus D68 strain US/KY/14-18953 in RD cells; type: cell-based
SMILES,EC50 (Coxsackievirus B3-H3) [µM],EC50 (Poliovirus 1) [µM],EC50 (Poliovirus 3) [µM],EC50 (Enterovirus 71) [µM],EC50 (Coxsackievirus A9) [µM],EC50 (Echovirus 6) [µM],EC50 (Echovirus 11) [µM],CC50 (HeLa-RW cells) [µM],CC50 (LLC cells) [µM],EC50 (Coxsackievirus B1) [µM],EC50 (Coxsackievirus B2) [µM],EC50 (Coxsackievirus B4) [µM],EC50 (Coxsackievirus B5) [µM],EC50 (Echovirus 7) [µM],EC50 (Echovirus 9) [µM],EC50 (Echovirus 30) [µM],EC50 (Enterovirus D68/Fermon) [µM],EC50 [1] [µM],EC50 [2] [µM],CC50 (RD cells) [µM]
CC(C)n1ncc2c(C(=O)Nc3ccccc3F)cc(-c3ccccc3)nc21 [JX-002],4.5 ± 1.5,> 25,> 25,5.7 ± 1.5,5,4.4 ± 0.6,2.9,37.5,> 200,–,–,–,–,–,–,–,–,–,–,–
CC(C)n1ncc2c(C(=O)Nc3ccccc3F)cc(-c3ccncc3)nc21 [JX-003],5.1 ± 0.1,> 25,> 25,> 10,7 ± 0.8,9.2 ± 3.2,5.3,37.5,45,–,–,–,–,–,–,–,–,–,–,–
CC(C)n1ncc2c(C(=O)Nc3ccccc3F)cc(-c3ccccn3)nc21 [JX-004],6.9 ± 0.7,> 25,> 25,> 10,6.1 ± 2.2,7.8 ± 1.8,3.8,> 200,100,–,–,–,–,–,–,–,–,–,–,–
CC(C)n1ncc2c(C(=O)Nc3ccccc3F)cc(-c3cccnc3)nc21 [JX-005],7 ± 2.4,> 25,> 25,> 10,7.8 ± 2.6,9,4.5,37.5,50,–,–,–,–,–,–,–,–,–,–,–
CC(C)n1ncc2c(C(=O)Nc3c(F)cccc3F)cc(-c3cccs3)nc21 [JX-009],3.2 ± 0.5,> 25,> 25,3.4 ± 0.7,4,4.9 ± 0.3,2.8,> 200,> 200,–,–,–,–,–,–,–,–,–,–,–
CC(C)n1ncc2c(C(=O)Nc3ccccc3F)cc(-c3cncs3)nc21 [JX-010],3.3 ± 1.4,> 25,> 25,3.7 ± 0.2,3.1,4.2 ± 0.3,3.2,> 200,100,–,–,–,–,–,–,–,–,–,–,–
CC(C)n1ncc2c(C(=O)Nc3cccc(F)c3)cc(-c3cccs3)nc21 [JX-021],1.3 ± 0.2,> 25,> 25,2.4 ± 0.8,1.6,1.5 ± 0.5,–,> 200,> 200,2.6 ± 0.5,2.6 ± 0.5,2.6 ± 0.5,2.3,2.9,1.2,–,–,–,–,–
CNS(=O)(=O)c1cccc(NC(=O)c2cc(-c3cccs3)nc3c2cnn3C(C)C)c1 [JX-053],0.6,> 10,> 10,0.7 ± 0.1,0.8,–,0.6,12,25,0.6,0.6,0.6,0.6,0.45,0.2,0.6,–,–,–,–
CC(C)n1ncc2c(C(=O)Nc3ccccn3)cc(-c3ccsc3)nc21 [JX-057],1.2,> 10,> 10,0.8,–,–,1.2,18,25,1.2,1.2,1.2,1.2,–,0.4,–,–,–,–,–
CC(C)n1ncc2c(C(=O)Nc3ncccn3)cc(-c3ccsc3)nc21 [JX-058],1.2,> 10,> 10,1.2,–,–,1.3,40,50,1.2,1.2,1.2,1.2,–,0.6,–,–,–,–,–
CC(C)n1ncc2c(C(=O)Nc3ccncn3)cc(-c3ccsc3)nc21 [JX-059],1.2,> 10,> 10,0.8,–,–,1.2,> 200,> 200,1.2,1.2,1.2,1.2,–,0.4,–,0.69 ± 0.09,0.57 ± 0.22,0.87 ± 0.31,75
